The values that follow are results of earlier work, collected in US20260014099A1, “SELF-PRESERVING TOPICAL PHARMACEUTICAL COMPOSITIONS COMPRISING DIETHYLENE GLYCOL MONOETHYL ETHER” (priority 2022, published 2026).

For ivermectin, the “Water Solubility” value is 4 mg/L. `NC(N)=O` [urea]: the “Water Solubility” value was 1,190,000 mg/liter.
